{"source": "paper PMC12715762", "about": "“Discovery of VU6052254: A Novel, Potent M1 Positive Allosteric Modulator” (ACS Chemical Neuroscience, 2025)", "key": {"CYP 3A4": {"molecular_target": "CYP 3A4 (Homo sapiens, UniProt P08684)", "assay": "CYP450 inhibition", "format": "in vitro ADME"}, "hERG": {"molecular_target": "T1, hERG (Homo sapiens, UniProt Q12809)", "T1 construct": "Charles River", "assay": "functional hERG manual patch clamp (MPC) assay", "format": "cell-based"}, "CV ion channels": {"test_system": "CV ion channels", "assay": "CV ion channel EP panel", "format": "cell-based", "conditions": "result in words"}, "[1]": {"assay": "IV/PO pharmacokinetics (dog)", "format": "in vivo", "conditions": "Dog (beagle)"}, "Sprague-Dawley rats": {"test_system": "Sprague-Dawley rats", "assay": "contextual fear conditioning (CFC)", "format": "in vivo, rat", "procedure": "Contextual Fear Conditioning\nContextual Fear Conditioning. Studies were conducted using conditioning chambers in sound attenuating cubicles equipped with a stainless steel grid floor for shock delivery and a video camera for recording freezing behavior (Med Associates, Fairfax, Vermont). Rats were acclimated to the apparatus for 3 days (10 minutes each day) prior to conditioning. On the training (conditioning) day, rats were pretreated by oral gavage with Vehicle (10% Tween 80) or Compound X […]\nconditioning chamber that contained 1 mL 10% vanilla extract as odor cue.2 After a 180-sec"}, "[2]": {"assay": "human PK and dose predictions (geometric mean of six methods)", "procedure": "The predicted dose for 7 ranged from 32 to 84 mg QD. Based on this analysis, PAM 7 was advanced to safety and ADME studies."}, "1A2": {"test_system": "1A2", "assay": "CYP450 induction in human hepatocytes (three donors)", "format": "cell-based", "conditions": "10 μM, human hepatocytes from three donors"}, "Adenosine A2A": {"molecular_target": "Adenosine A2A (Homo sapiens, UniProt P29274)", "assay": "Eurofins radioligand binding"}, "Adenosine A3": {"molecular_target": "Adenosine A3 (Homo sapiens, UniProt P0DMS8)", "assay": "Eurofins radioligand binding"}, "Adrenergic α1A": {"molecular_target": "Adrenergic α1A (Homo sapiens, UniProt P35348)", "assay": "Eurofins radioligand binding"}, "Bradykinin B2": {"molecular_target": "Bradykinin B2 (Homo sapiens, UniProt P30411)", "sequence (P30411 whole entry)": "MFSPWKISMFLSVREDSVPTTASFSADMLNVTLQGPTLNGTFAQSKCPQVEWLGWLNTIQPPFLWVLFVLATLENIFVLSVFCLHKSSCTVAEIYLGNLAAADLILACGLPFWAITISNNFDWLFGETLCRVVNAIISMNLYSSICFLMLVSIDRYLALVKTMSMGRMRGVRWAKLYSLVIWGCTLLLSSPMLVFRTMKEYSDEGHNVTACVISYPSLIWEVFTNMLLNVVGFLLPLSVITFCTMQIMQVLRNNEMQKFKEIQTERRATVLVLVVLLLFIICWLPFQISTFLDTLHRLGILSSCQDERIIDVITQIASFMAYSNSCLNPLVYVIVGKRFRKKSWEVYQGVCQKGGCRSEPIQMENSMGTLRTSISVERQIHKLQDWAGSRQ", "assay": "Eurofins radioligand binding"}, "Cannabinoid CB1": {"molecular_target": "Cannabinoid CB1 (Homo sapiens, UniProt P21554)", "assay": "Eurofins radioligand binding"}, "Dopamine D1": {"molecular_target": "Dopamine D1 (Homo sapiens, UniProt P21728)", "sequence (P21728 whole entry)": "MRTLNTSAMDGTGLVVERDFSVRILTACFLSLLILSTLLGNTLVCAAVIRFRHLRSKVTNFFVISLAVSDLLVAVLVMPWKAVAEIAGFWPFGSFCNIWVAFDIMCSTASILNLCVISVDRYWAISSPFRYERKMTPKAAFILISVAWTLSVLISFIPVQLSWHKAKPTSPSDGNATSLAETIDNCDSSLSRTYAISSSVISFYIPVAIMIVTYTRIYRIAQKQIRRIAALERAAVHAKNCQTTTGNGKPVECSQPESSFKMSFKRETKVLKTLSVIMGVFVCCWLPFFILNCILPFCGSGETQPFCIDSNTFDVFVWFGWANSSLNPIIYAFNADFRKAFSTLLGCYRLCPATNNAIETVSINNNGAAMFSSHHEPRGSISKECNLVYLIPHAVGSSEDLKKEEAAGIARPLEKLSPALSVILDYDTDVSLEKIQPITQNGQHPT", "assay": "Eurofins radioligand binding"}, "Dopamine D2S": {"molecular_target": "Dopamine D2S (Homo sapiens, UniProt P14416)", "sequence (P14416 1-414 isoform P14416-2)": "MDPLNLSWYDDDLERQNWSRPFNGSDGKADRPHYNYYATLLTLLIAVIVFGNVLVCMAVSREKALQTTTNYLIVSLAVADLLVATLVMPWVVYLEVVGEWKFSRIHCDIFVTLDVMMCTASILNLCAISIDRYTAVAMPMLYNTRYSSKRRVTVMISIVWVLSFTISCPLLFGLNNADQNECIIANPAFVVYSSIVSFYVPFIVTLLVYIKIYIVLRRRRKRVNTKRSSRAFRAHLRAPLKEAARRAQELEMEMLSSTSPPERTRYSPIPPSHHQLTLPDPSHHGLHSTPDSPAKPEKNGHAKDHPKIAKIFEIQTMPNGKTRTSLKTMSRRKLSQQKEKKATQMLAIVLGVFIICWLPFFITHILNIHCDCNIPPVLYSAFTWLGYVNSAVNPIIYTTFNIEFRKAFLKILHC", "assay": "Eurofins radioligand binding"}, "Endothelin ETA": {"molecular_target": "Endothelin ETA (Homo sapiens, UniProt P25101)", "sequence (P25101 21-427)": "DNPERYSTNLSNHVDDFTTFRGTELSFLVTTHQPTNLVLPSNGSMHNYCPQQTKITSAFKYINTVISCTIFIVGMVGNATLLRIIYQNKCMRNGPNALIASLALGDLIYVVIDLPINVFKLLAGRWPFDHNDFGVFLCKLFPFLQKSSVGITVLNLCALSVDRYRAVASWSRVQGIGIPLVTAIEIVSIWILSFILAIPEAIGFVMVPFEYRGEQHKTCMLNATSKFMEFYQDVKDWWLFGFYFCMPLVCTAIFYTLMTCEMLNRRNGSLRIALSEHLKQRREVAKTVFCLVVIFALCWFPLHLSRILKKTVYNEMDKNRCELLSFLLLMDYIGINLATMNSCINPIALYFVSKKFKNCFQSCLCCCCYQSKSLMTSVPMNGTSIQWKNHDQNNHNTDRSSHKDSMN", "assay": "Eurofins radioligand binding"}, "Estrogen ERα": {"molecular_target": "Estrogen ERα (Homo sapiens, UniProt P03372)", "assay": "Eurofins radioligand binding"}, "Glucocorticoid": {"molecular_target": "Glucocorticoid (Homo sapiens, UniProt P04150)", "sequence (P04150 whole entry)": "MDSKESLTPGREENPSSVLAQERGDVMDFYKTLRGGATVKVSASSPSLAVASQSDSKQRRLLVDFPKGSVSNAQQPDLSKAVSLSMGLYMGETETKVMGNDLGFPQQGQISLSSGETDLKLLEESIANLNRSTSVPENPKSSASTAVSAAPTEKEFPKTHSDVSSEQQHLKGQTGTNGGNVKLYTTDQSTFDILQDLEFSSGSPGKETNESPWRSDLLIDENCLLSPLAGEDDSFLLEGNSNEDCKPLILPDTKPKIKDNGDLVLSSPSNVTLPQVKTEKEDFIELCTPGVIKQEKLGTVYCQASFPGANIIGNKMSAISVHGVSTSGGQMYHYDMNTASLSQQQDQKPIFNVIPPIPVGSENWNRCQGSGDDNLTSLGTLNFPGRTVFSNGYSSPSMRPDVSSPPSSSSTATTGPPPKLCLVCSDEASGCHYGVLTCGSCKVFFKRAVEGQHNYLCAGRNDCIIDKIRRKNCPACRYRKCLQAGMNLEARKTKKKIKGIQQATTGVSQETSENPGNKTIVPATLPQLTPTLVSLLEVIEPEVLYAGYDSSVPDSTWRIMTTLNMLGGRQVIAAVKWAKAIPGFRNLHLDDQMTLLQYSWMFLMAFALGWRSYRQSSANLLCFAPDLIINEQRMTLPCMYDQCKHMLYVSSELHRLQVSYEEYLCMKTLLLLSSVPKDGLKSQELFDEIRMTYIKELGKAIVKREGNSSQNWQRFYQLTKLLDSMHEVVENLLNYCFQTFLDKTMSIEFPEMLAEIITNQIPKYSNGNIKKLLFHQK", "assay": "Eurofins radioligand binding"}, "Imidazoline I2, Central": {"test_system": "Imidazoline I2, Central", "assay": "Eurofins radioligand binding", "conditions": "Rat"}, "Melatonin MT1": {"molecular_target": "Melatonin MT1 (Homo sapiens, UniProt P48039)", "assay": "Eurofins radioligand binding"}, "Muscarinic M1": {"molecular_target": "Muscarinic M1 (Homo sapiens, UniProt P11229)", "sequence (P11229 whole entry)": "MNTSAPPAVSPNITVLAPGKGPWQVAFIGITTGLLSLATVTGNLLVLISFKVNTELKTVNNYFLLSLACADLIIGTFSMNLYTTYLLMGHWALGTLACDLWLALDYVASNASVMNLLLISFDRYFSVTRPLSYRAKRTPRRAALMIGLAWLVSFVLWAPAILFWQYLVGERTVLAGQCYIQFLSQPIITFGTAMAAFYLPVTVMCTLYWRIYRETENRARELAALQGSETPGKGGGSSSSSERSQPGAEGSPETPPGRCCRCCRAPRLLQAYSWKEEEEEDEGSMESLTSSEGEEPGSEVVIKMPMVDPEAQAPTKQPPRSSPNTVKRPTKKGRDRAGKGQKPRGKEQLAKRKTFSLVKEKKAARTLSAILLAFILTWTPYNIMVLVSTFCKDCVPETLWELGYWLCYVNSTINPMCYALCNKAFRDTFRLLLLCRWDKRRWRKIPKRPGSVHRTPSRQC", "assay": "Eurofins radioligand binding"}, "Neuropeptide Y Y2": {"molecular_target": "Neuropeptide Y Y2 (Homo sapiens, UniProt P49146)", "assay": "Eurofins radioligand binding"}, "[3]": {"molecular_target": "Nicotinic Acetylcholine α1, Bungarotoxin (Homo sapiens, UniProt P02708+P07510+Q07001)", "sequence (P11230 24-501)": "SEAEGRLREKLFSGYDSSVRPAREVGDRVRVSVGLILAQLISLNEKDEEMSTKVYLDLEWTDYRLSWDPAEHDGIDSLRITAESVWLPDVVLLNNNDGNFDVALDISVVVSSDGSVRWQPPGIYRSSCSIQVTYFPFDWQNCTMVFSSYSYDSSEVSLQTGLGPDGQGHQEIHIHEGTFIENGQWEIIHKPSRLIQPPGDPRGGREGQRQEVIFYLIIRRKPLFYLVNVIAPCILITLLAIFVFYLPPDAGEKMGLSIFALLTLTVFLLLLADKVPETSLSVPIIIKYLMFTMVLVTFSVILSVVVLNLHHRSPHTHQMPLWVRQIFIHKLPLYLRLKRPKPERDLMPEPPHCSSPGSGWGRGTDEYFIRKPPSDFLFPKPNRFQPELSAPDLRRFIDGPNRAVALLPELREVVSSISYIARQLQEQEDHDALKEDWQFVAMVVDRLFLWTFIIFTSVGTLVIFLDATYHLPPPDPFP", "sequence (P07510 23-517)": "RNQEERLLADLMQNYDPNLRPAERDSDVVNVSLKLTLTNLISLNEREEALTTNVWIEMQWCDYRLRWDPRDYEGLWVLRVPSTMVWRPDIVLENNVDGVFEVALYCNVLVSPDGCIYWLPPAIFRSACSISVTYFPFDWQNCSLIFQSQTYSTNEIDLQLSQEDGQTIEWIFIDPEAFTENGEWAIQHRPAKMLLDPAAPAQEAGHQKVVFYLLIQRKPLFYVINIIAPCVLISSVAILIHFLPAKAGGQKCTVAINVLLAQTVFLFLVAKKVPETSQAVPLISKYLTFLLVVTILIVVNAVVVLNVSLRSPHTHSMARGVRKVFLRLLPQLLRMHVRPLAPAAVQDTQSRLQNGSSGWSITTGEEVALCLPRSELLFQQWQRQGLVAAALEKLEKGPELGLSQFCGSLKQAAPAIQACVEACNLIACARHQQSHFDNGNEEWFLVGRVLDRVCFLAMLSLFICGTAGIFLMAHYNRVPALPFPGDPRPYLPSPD", "sequence (P02708 21-457)": "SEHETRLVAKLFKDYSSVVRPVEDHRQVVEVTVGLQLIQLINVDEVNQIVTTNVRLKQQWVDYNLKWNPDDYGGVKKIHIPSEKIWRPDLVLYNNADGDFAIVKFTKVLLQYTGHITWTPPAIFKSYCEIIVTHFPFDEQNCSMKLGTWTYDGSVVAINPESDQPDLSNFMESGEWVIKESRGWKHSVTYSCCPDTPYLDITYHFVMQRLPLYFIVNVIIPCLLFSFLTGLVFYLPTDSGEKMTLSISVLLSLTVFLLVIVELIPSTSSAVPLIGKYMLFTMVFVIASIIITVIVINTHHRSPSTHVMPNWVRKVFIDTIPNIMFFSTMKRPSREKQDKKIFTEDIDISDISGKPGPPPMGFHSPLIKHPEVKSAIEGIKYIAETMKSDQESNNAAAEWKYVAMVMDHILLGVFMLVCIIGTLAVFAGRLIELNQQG", "sequence (Q07001 22-517)": "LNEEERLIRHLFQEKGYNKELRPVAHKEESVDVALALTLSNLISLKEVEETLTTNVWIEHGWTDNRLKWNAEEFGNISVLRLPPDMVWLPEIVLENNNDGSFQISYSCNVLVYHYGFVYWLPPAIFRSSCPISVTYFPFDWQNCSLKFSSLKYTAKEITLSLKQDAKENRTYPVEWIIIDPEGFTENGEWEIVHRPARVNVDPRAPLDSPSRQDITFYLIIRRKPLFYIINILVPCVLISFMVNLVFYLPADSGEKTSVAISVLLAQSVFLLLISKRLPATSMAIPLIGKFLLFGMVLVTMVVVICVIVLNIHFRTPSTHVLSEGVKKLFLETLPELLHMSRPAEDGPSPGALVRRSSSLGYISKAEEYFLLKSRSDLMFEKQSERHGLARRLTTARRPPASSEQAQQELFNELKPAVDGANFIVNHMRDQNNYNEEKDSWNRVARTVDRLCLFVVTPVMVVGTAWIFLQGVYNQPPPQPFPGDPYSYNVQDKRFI", "assay": "Eurofins radioligand binding", "conditions": "read-out: % Inhibition at 10 µM"}, "Opiate μ (OP3, MOP)": {"molecular_target": "Opiate μ (OP3, MOP) (Homo sapiens, UniProt P35372)", "assay": "Eurofins radioligand binding"}, "hERG potassium channel": {"molecular_target": "hERG potassium channel (Homo sapiens, UniProt Q12809)", "assay": "Eurofins radioligand binding"}, "Serotonin (5-HT1A)": {"molecular_target": "Serotonin (5-HT1A) (Homo sapiens, UniProt P08908)", "assay": "Eurofins radioligand binding"}, "Thyroid Hormone": {"test_system": "Thyroid Hormone", "assay": "Eurofins radioligand binding", "conditions": "Rat"}, "[4]": {"molecular_target": "Transporter, Dopamine (DAT) (Homo sapiens, UniProt Q01959)", "assay": "Eurofins radioligand binding"}}, "note": "“Also recorded” adds a separate entry of the source."}
{"smiles": "Cn1cc2c(-c3cc(F)c(CN4Cc5ncccc5C4=O)c(F)c3)ccc(C(C)(C)O)c2n1", "note": "[compound 7]", "values": [{"measurement": "IC50", "setting": "CYP 3A4", "result": "> 30", "unit": "µM"}, {"measurement": "IC50", "setting": "hERG", "result": "> 30", "unit": "µM"}, {"measurement": "activity in CV ion channel EP panel", "setting": "CV ion channels", "result": "no significant activities"}, {"measurement": "F (%) po", "setting": "[1]; 3 mg/kg po", "result": 65, "unit": "%"}, {"measurement": "clearance", "setting": "[1]; plasma, 1 mg/kg iv, read-out: CLp", "result": 8.4, "unit": "mL/min/kg"}, {"measurement": "half-life", "setting": "[1]; plasma, 1 mg/kg iv, read-out: Elimination t1/2 (converted)", "result": 4.1, "unit": "h"}, {"measurement": "Vd", "setting": "[1]; plasma, 1 mg/kg iv, read-out: Vss", "result": 2.3, "unit": "L/kg"}, {"measurement": "AUC", "setting": "[1]; plasma, 3 mg/kg po", "result": 9, "unit": "µM·h"}, {"measurement": "Cmax", "setting": "[1]; plasma, 3 mg/kg po", "result": 700, "unit": "nM"}, {"measurement": "Tmax", "setting": "[1]; plasma, 3 mg/kg po", "result": 1.33, "unit": "h"}, {"measurement": "total brain concentration at CFC MED", "setting": "Sprague-Dawley rats; 0.3 mg/kg PO, rat", "result": 58, "unit": "nM"}, {"measurement": "effect on acquisition of CFC", "setting": "Sprague-Dawley rats; 0.03-3 mg/kg PO, result in words", "result": "robust dose-dependent enhancement in the acquisition of contextual fear conditioning; also recorded: dose-dependently enhanced the acquisition of CFC"}, {"measurement": "minimum effective dose (MED) in rat CFC", "setting": "Sprague-Dawley rats; PO, 10% Tween 80 in water, male Sprague-Dawley rats", "result": 0.3, "unit": "mg/kg"}, {"measurement": "predicted human dose", "setting": "[2]; QD", "result": "32 to 84", "unit": "mg"}, {"measurement": "predicted human CLp", "setting": "[2]; geometric mean of six methods", "result": 2.6, "unit": "mL/min/kg"}, {"measurement": "predicted human Vss", "setting": "[2]; geometric mean of six methods", "result": 1.16, "unit": "L/kg"}, {"measurement": "predicted human oral bioavailability", "setting": "[2]; geometric mean of six methods", "result": 79, "unit": "%"}, {"measurement": "predicted human t1/2", "setting": "[2]; geometric mean of six methods", "result": 5.1, "unit": "h"}, {"measurement": "1A2 induction", "setting": "1A2", "result": 4.9, "unit": "%"}, {"measurement": "inhibition at 10 µM", "setting": "Adenosine A2A", "result": 3, "unit": "%"}, {"measurement": "inhibition at 10 µM", "setting": "Adenosine A3", "result": 8, "unit": "%"}, {"measurement": "inhibition at 10 µM", "setting": "Adrenergic α1A", "result": 13, "unit": "%"}, {"measurement": "inhibition at 10 µM", "setting": "Bradykinin B2", "result": -18, "unit": "%"}, {"measurement": "inhibition at 10 µM", "setting": "Cannabinoid CB1", "result": 25, "unit": "%"}, {"measurement": "inhibition at 10 µM", "setting": "Dopamine D1", "result": 6, "unit": "%"}, {"measurement": "inhibition at 10 µM", "setting": "Dopamine D2S", "result": -2, "unit": "%"}, {"measurement": "inhibition at 10 µM", "setting": "Endothelin ETA", "result": 11, "unit": "%"}, {"measurement": "inhibition at 10 µM", "setting": "Estrogen ERα", "result": 12, "unit": "%"}, {"measurement": "inhibition at 10 µM", "setting": "Glucocorticoid", "result": 9, "unit": "%"}, {"measurement": "% Inhibition at 10 µM", "setting": "Imidazoline I2, Central", "result": 64, "unit": "%"}, {"measurement": "inhibition at 10 µM", "setting": "Melatonin MT1", "result": -1, "unit": "%"}, {"measurement": "inhibition at 10 µM", "setting": "Muscarinic M1", "result": 18, "unit": "%"}, {"measurement": "inhibition at 10 µM", "setting": "Neuropeptide Y Y2", "result": -9, "unit": "%"}, {"measurement": "inhibition at 10 µM", "setting": "[3]", "result": 2, "unit": "%"}, {"measurement": "inhibition at 10 µM", "setting": "Opiate μ (OP3, MOP)", "result": 2, "unit": "%"}, {"measurement": "inhibition at 10 µM", "setting": "hERG potassium channel", "result": 2, "unit": "%"}, {"measurement": "inhibition at 10 µM", "setting": "Serotonin (5-HT1A)", "result": 12, "unit": "%"}, {"measurement": "% Inhibition at 10 µM", "setting": "Thyroid Hormone", "result": -1, "unit": "%"}, {"measurement": "inhibition at 10 µM", "setting": "[4]", "result": 7, "unit": "%"}]}
